Measurements reported in US9844585B2, “Convection enhanced delivery apparatus, method, and application” (YALE UNIVERSITY, priority 2007, dated 2017).
“Also recorded” adds a separate entry of the source.

Experiments:
[1] = test system: striatum of the normal rat brain; test: In vivo nanoparticle infusions by CED with enzymatic or hyperosmolar treatment
[2] = test system: rat brain; details: hyperosmolar mannitol co-infusion; cited from earlier work
[3] = co-infused with 20% mannitol; cited from earlier work
[4] = test system: hyaluronan (HA); test: Histochemical assessment of hyaluronan degradation (HABP staining); assay type: in vivo, rat
Protocol: Degradation of HA was determined by staining with hyaluronic acid binding protein (HABP) following 1 μL infusions of 1000 U/mL hyaluronidase into the striatum following the same surgical procedure outlined above. Following degradation times of 30 min, 6, 12, and 24 hr brains were harvested and post-fixed in 4% paraformaldehyde in PBS at 4° C. for 4 days. The tissue was cryo-protected in 30% sucrose for 3 days, frozen at −70° C., and sectioned into 50 μm slices. Tissue slices were immersed in biotinylated HABP ([…], Calbiochem 385911) in PBS and left overnight on an orbital shaker. Slides were then immersed Alexa 555-Streptavidin conjugate (2 mg/mL, Invitrogen S21281) for two hours. Following several washing steps in PBS, stained slices were mounted with ProLong Gold Antifade media (Invitrogen P36930) and covered. Fluorescent images were captured using the same set-up described for nanoparticle imaging.

[5] = in 0.3% agarose; cited from earlier work
[6] = test system: xenografted tumors; details: following collagenase treatment of xenografted tumors; cited from earlier work

OC[C@@H](O)[C@@H](O)[C@H](O)[C@H](O)CO [Mannitol, mannitol]
entrainment of nanoparticles in perivascular spaces / branched distribution indicative of perivascular transport ([1]; co-infusion of mannitol with nanoparticles): attenuated; also recorded: not observed
increase in nanoparticle distribution volume ([1]; co-infusion with 25% mannitol, untreated tissue vs untreated tissue without mannitol): 133%
increase in nanoparticle distribution volume ([1]; mannitol co-infusion into enzyme-treated (24 hr hyaluronidase) tissue vs enzyme-treated tissue): 23%
increase in the distribution volume of 40 nm liposomes [2]: 50%
distribution volume of 2 kDa dextran [3]: unchanged

Hyaluronidase
effect on nanoparticle distribution volume ([1]; 30 min digestion with hyaluronidase): no measurable change; also recorded: no measurable effect
increase in nanoparticle distribution volume ([1]; 24 hr digestion with hyaluronidase vs normal tissue): 70%
degradation of HA by HABP staining ([4]; 30 min and 6 hr after 1 μL of 1000 U/mL): some evidence of degradation
degradation of HA by HABP staining ([4]; 12 hr and 24 hr after 1 μL of 1000 U/mL): widespread degradation of HA
degradation of HA by HABP staining ([4]; 24 hr incubation): most complete digestion of HA

albumin
diffusivity D [5]: 8.3×10^−7 cm^2/s

collagenase
increase in the diffusivity of IgG [6]: 100%
